Tested on: 349418-098-R-PDC spheroids, viability, % test/control
Experiment: Anticancer human tumor 349418-098-R-PDC patient-derived lung adenocarcinoma cell line growth inhibition [IpAb]
Conditions: spheroids with HUVEC and MSC; for IC50: curve of first compound; for viability, T/C: stronger effect = lower value
How it was run: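 Combinations with ipatasertib or abemaciclib were tested on tumour spheroids holding HUVEC (25%) and MSC (15%) alongside 60% malignant cells. Top concentration was at or near clinical Cmax (10 microM if undefined), descending in half-log steps.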

[1] = second compound 0.01 µM, first compound 0.0316 µM
[2] = second compound 0.01 µM, first compound 0.1 µM
[3] = second compound 0.01 µM, first compound 0.316 µM
[4] = second compound 0.01 µM, first compound 1 µM
[5] = second compound 0.01 µM, first compound 3.16 µM
[6] = second compound 0.01 µM, first compound 10 µM
[7] = second compound 0.0316 µM, first compound 0.0316 µM
[8] = second compound 0.0316 µM, first compound 0.1 µM
[9] = second compound 0.0316 µM, first compound 0.316 µM
[10] = second compound 0.0316 µM, first compound 1 µM
[11] = second compound 0.0316 µM, first compound 3.16 µM
[12] = second compound 0.0316 µM, first compound 10 µM
[13] = second compound 0.1 µM, first compound 0.0316 µM
[14] = second compound 0.1 µM, first compound 0.1 µM
[15] = second compound 0.1 µM, first compound 0.316 µM
[16] = second compound 0.1 µM, first compound 1 µM
[17] = second compound 0.1 µM, first compound 3.16 µM
[18] = second compound 0.1 µM, first compound 10 µM
[19] = second compound 0.316 µM, first compound 0.0316 µM
[20] = second compound 0.316 µM, first compound 0.1 µM
[21] = second compound 0.316 µM, first compound 0.316 µM
[22] = second compound 0.316 µM, first compound 1 µM
[23] = second compound 0.316 µM, first compound 3.16 µM
[24] = second compound 0.316 µM, first compound 10 µM
[25] = second compound 1 µM, first compound 0.0316 µM
[26] = second compound 1 µM, first compound 0.1 µM
[27] = second compound 1 µM, first compound 0.316 µM
[28] = second compound 1 µM, first compound 1 µM
[29] = second compound 1 µM, first compound 3.16 µM
[30] = second compound 1 µM, first compound 10 µM
[31] = second compound 0.01 µM, first compound 0.00949 µM
[32] = second compound 0.01 µM, first compound 0.03 µM
[33] = second compound 0.01 µM, first compound 0.0949 µM
[34] = second compound 0.01 µM, first compound 0.3 µM
[35] = second compound 0.0316 µM, first compound 0.00949 µM
[36] = second compound 0.0316 µM, first compound 0.03 µM
[37] = second compound 0.0316 µM, first compound 0.0949 µM
[38] = second compound 0.0316 µM, first compound 0.3 µM
[39] = second compound 0.1 µM, first compound 0.00949 µM
[40] = second compound 0.1 µM, first compound 0.03 µM
[41] = second compound 0.1 µM, first compound 0.0949 µM
[42] = second compound 0.1 µM, first compound 0.3 µM
[43] = second compound 0.316 µM, first compound 0.00949 µM
[44] = second compound 0.316 µM, first compound 0.03 µM
[45] = second compound 0.316 µM, first compound 0.0949 µM
[46] = second compound 0.316 µM, first compound 0.3 µM
[47] = second compound 1 µM, first compound 0.00949 µM
[48] = second compound 1 µM, first compound 0.03 µM
[49] = second compound 1 µM, first compound 0.0949 µM
[50] = second compound 1 µM, first compound 0.3 µM
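Further: spheroids exposed to compounds for 7 days.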

C=CC(=O)N1CCN(c2nc(=O)n(-c3c(C)ccnc3C(C)C)c3nc(-c4c(O)cccc4F)c(F)cc23)C(C)C1 (stereo not given) + CCN1CCN(Cc2ccc(Nc3ncc(F)c(-c4cc(F)c5nc(C)n(C(C)C)c5c4)n3)nc2)CC1
IC50 (second compound 0.01 µM): 4.63 µM | IC50 (second compound 0.0316 µM): 0.124 µM | IC50 (second compound 0.1 µM): < 0.0316 µM | IC50 (second compound 0.316 µM): < 0.0316 µM | IC50 (second compound 1 µM): < 0.0316 µM | viability, T/C [1]: 90.2% | viability, T/C [2]: 82.9% | viability, T/C [3]: 82.8% | viability, T/C [4]: 87.1% | viability, T/C [5]: 57.2% | viability, T/C [6]: 35.5% | viability, T/C [7]: 58.9% | viability, T/C [8]: 47.8% | viability, T/C [9]: 43.2% | viability, T/C [10]: 41.2% | viability, T/C [11]: 35.1% | viability, T/C [12]: 20.5% | viability, T/C [13]: 33.9% | viability, T/C [14]: 28.7% | viability, T/C [15]: 31.4% | viability, T/C [16]: 29.6% | viability, T/C [17]: 23.3% | viability, T/C [18]: 13.2% | viability, T/C [19]: 19.7% | viability, T/C [20]: 22% | viability, T/C [21]: 22.1% | viability, T/C [22]: 21.2% | viability, T/C [23]: 18.1% | viability, T/C [24]: 14.1% | viability, T/C [25]: 19.3% | viability, T/C [26]: 21.5% | viability, T/C [27]: 20.9% | viability, T/C [28]: 16% | viability, T/C [29]: 19.2% | viability, T/C [30]: 10.9%

CC(=O)c1c(C)c2cnc(Nc3ccc(N4CCNCC4)cn3)nc2n(C2CCCC2)c1=O + CCN1CCN(Cc2ccc(Nc3ncc(F)c(-c4cc(F)c5nc(C)n(C(C)C)c5c4)n3)nc2)CC1
IC50 (second compound 0.01 µM): 0.00656 µM | IC50 (second compound 0.0316 µM): < 0.000949 µM | IC50 (second compound 0.1 µM): < 0.000949 µM | IC50 (second compound 0.316 µM): < 0.000949 µM | IC50 (second compound 1 µM): < 0.000949 µM | viability, T/C (second compound 0.01 µM, first compound 0.000949 µM): 58.4% | viability, T/C (second compound 0.01 µM, first compound 0.003 µM): 64.5% | viability, T/C [31]: 40.4% | viability, T/C [32]: 35.1% | viability, T/C [33]: 19.1% | viability, T/C [34]: 15.8% | viability, T/C (second compound 0.0316 µM, first compound 0.000949 µM): 40.7% | viability, T/C (second compound 0.0316 µM, first compound 0.003 µM): 38.7% | viability, T/C [35]: 28.5% | viability, T/C [36]: 23.6% | viability, T/C [37]: 15.1% | viability, T/C [38]: 15.6% | viability, T/C (second compound 0.1 µM, first compound 0.000949 µM): 24.8% | viability, T/C (second compound 0.1 µM, first compound 0.003 µM): 24.8% | viability, T/C [39]: 20.7% | viability, T/C [40]: 19.5% | viability, T/C [41]: 16.1% | viability, T/C [42]: 14.6% | viability, T/C (second compound 0.316 µM, first compound 0.000949 µM): 16.8% | viability, T/C (second compound 0.316 µM, first compound 0.003 µM): 19.6% | viability, T/C [43]: 19% | viability, T/C [44]: 16% | viability, T/C [45]: 13.8% | viability, T/C [46]: 14.4% | viability, T/C (second compound 1 µM, first compound 0.000949 µM): 13.4% | viability, T/C (second compound 1 µM, first compound 0.003 µM): 17.6% | viability, T/C [47]: 15.1% | viability, T/C [48]: 15% | viability, T/C [49]: 14.9% | viability, T/C [50]: 13.9%

CC(C)(C)c1cnc(CSc2cnc(NC(=O)C3CCNCC3)s2)o1 + CCN1CCN(Cc2ccc(Nc3ncc(F)c(-c4cc(F)c5nc(C)n(C(C)C)c5c4)n3)nc2)CC1
IC50 (second compound 0.01 µM): 0.0241 µM | IC50 (second compound 0.0316 µM): < 0.00949 µM | IC50 (second compound 0.1 µM): < 0.00949 µM | IC50 (second compound 0.316 µM): < 0.00949 µM | IC50 (second compound 1 µM): < 0.00949 µM | viability, T/C [31]: 69.8% | viability, T/C [32]: 45.4% | viability, T/C [33]: 8.31% | viability, T/C [34]: 2.5% | viability, T/C (second compound 0.01 µM, first compound 0.949 µM): 2.72% | viability, T/C (second compound 0.01 µM, first compound 3 µM): 2.34% | viability, T/C [35]: 47.7% | viability, T/C [36]: 36.2% | viability, T/C [37]: 6.02% | viability, T/C [38]: 2.71% | viability, T/C (second compound 0.0316 µM, first compound 0.949 µM): 2.93% | viability, T/C (second compound 0.0316 µM, first compound 3 µM): 2.49% | viability, T/C [39]: 24.8% | viability, T/C [40]: 17.7% | viability, T/C [41]: 4.01% | viability, T/C [42]: 2.44% | viability, T/C (second compound 0.1 µM, first compound 0.949 µM): 3% | viability, T/C (second compound 0.1 µM, first compound 3 µM): 2.01% | viability, T/C [43]: 14.4% | viability, T/C [44]: 13.7% | viability, T/C [45]: 1.91% | viability, T/C [46]: 2.83% | viability, T/C (second compound 0.316 µM, first compound 0.949 µM): 3.36% | viability, T/C (second compound 0.316 µM, first compound 3 µM): 2.48% | viability, T/C [47]: 13.9% | viability, T/C [48]: 9.5% | viability, T/C [49]: 2.29% | viability, T/C [50]: 4.08% | viability, T/C (second compound 1 µM, first compound 0.949 µM): 4.05% | viability, T/C (second compound 1 µM, first compound 3 µM): 3.25%

Cn1nccc1Nc1nccc(-c2ccn(C(CO)c3ccc(Cl)c(F)c3)c(=O)c2)n1 (stereo not given) + CCN1CCN(Cc2ccc(Nc3ncc(F)c(-c4cc(F)c5nc(C)n(C(C)C)c5c4)n3)nc2)CC1
IC50 (second compound 0.01 µM): < 0.0316 µM | IC50 (second compound 0.0316 µM): < 0.0316 µM | IC50 (second compound 0.1 µM): < 0.0316 µM | IC50 (second compound 0.316 µM): < 0.0316 µM | IC50 (second compound 1 µM): < 0.0316 µM | viability, T/C [1]: 34.3% | viability, T/C [2]: 31.1% | viability, T/C [3]: 28.1% | viability, T/C [4]: 27.3% | viability, T/C [5]: 23.5% | viability, T/C [6]: 19.9% | viability, T/C [7]: 21.5% | viability, T/C [8]: 23% | viability, T/C [9]: 18.6% | viability, T/C [10]: 18% | viability, T/C [11]: 17.1% | viability, T/C [12]: 16.3% | viability, T/C [13]: 13.1% | viability, T/C [14]: 13.4% | viability, T/C [15]: 13.2% | viability, T/C [16]: 12.7% | viability, T/C [17]: 13.3% | viability, T/C [18]: 13.5% | viability, T/C [19]: 11.6% | viability, T/C [20]: 11.1% | viability, T/C [21]: 11.2% | viability, T/C [22]: 10.8% | viability, T/C [23]: 13% | viability, T/C [24]: 13.2% | viability, T/C [25]: 12.7% | viability, T/C [26]: 10.4% | viability, T/C [27]: 11.1% | viability, T/C [28]: 11.7% | viability, T/C [29]: 12.5% | viability, T/C [30]: 12.2%
